Test results: US11583525B2, “Geranylgeranyltransferase I inhibitor for treatment of a PTEN defective cancer” (H. LEE MOFFITT CANCER CENTER AND RESEARCH INSTITUTE, INC., priority 2017, dated 2023)
Entries after “also recorded” stand apart in the source; their conditions may differ. Peptide text beside a SMILES is read from it. * marks the point of attachment. Cbz = O=C(OCc1ccccc1)*

Experiments:
FBXL2 = assay: Live-cell imaging of GFP-tagged FBXL2 localization in HeLa cells; assay type: cell-based, human; conditions: HeLa cells transfected with GFP-tagged FBXL2; GGTi-2418 15 μM for 16 h
Procedure: FIGS. 6A, 6B, 6C, 6D, 6E, 6F, 6G, and 6H that the degradation of IP3R3 is dependent on FBXL2 localization to cell membranes and on the segregase activity of p97. […] Live cell imaging was carried out with an LSM510 confocal microscope using a 63× objective. Scale bars, 10 μm. […] Cells were subsequently harvested at the indicated times for immunoblotting. […] Cells were subsequently harvested for immunoblotting. This experiment was performed once. […] The bracket on the right marks a ladder of bands which, presumably, are ubiquitinated species of IP3R3 that are not degraded when p97 is inhibited. […] Cells were subsequently stimulated with medium containing serum and harvested at the indicated time points for immunoblotting. […] Error bars indicate s.e.m. […] Thus, we propose that, after its FBXL2-mediated ubiquitination, IP3R3 is extracted from cell membranes by the segregase activity of p97 to be degraded by the proteasome. […] 24 h post-transfection, cells were treated with MG132 for 3 h before harvesting for immunoprecipitation and immunoblotting as indicated. This experiment was performed twice. […] After immunopurification with an anti-Flag resin, in vitro ubiquitination of IP3R3 was performed in the presence of UAE1, Ubch3, Ubch5 and ubiquitin (Ub). […] Samples were analysed by immunoblotting with the indicated antibodies. […]

Ca2+ response = Ca2+ response measured with aequorin in COS-7 cells expressing IP3R3(Q-FR/A-AA); assay type: cell-based, African Green Monkey; conditions: serum re-stimulated 4 h with MG132, ATP
Procedure: FIGS. 1A, 1B, 1C, 1D, 1E, 1F, 1G, and 1H show FBXL2-mediated degradation of IP3R3 controls Ca2+ flux and sensitivity to apoptosis. […] Left, two representative traces. Right, quantification of three independent experiments. P values were calculated by one-way ANOVA and multiple-comparisons test. Error bars indicate s.e.m. 1b, 1c, and 1d, Apoptosis evaluated after treatment with H2O2 using automated nuclei count analysis of twenty randomly chosen fields following a 16 h treatment (1b), immunoblot detection of cleaved PARP and cleaved caspase-3 following a 3 h treatment (1c), and automated analysis of cells with released cytochrome c (Cyt c) from 80 randomly chosen fields following a 3 h treatment (1d). […] P values were calculated by one-way ANOVA and multiple-comparisons test. […] Left, representative traces show concentrations of cytosolic Ca2+ measured with aequorin. Right, quantification of three independent experiments. P values were calculated by one-way ANOVA and multiple-comparisons test. […] Apoptosis shown in 1h was evaluated as in 1b, except that H2O2 treatment was for 5 h. Analysis of cytochrome c release shown in 1i was evaluated as in 1d. P values were calculated by unpaired t-test. […]
FIGS. 7A, 7B, 7C, 7D, 7E, 7F, 7G, 7H, and 7I show FBXL2 controls Ca2+ mobilization and Ca2+-mediated apoptosis. […] P values were calculated by one-way ANOVA and multiple-comparisons test. […]

SMILES	FBXL2 localization (FBXL2)	Ca2+ response (Ca2+ response)
Cc1nc[nH]c1CN1CCN(C(=O)N[C@@H](CC(C)C)C(=O)O)[C@@H](Cc2ccccc2)C1=O [GGTi-2418]	delocalized FBXL2; also recorded: delocalizes FBXL2 from membranes	
CC(C)C[C@@H](C=O)NC(=O)[C@H](CC(C)C)NC(=O)[C@H](CC(C)C)NC(=O)OCc1ccccc1 [MG132] (Cbz-Leu-Leu-Leu-aldehyde)		did not produce an increase of the Ca2+ response
